Among the data in ChEMBL document CHEMBL3046939, “Design, synthesis, and anti-allergic activities of novel (R)(-)-1-[(4-chlorophenyl)phenyl methyl]piperazine derivatives” (2012) are Activity and Time values, retold here.

Holding throughout (format): functional
Test [1] has as its system Cavia porcellus. In words: Antipruritic activity in Cavia porcellus (guinea pig) histamine phosphate-induced itching model assessed as increase of total amount of histamine phosphate level at 50 mg/kg, administered 1 hr before histamine phosphate challenge with food relative to levocetirizine.
Test [2] relates to Cavia porcellus. In words: Antipruritic activity in Cavia porcellus (guinea pig) histamine phosphate-induced itching model assessed as increase of total amount of histamine phosphate level at 50 mg/kg, administered 1 hr before histamine phosphate challenge with food relative to control.
The test system of test [3] is Cavia porcellus. The experiment in a line: Antiasthmatic activity in Cavia porcellus (guinea pig) histamine phosphate-induced asthmatic model assessed as latent period of asthma at 50 mg/kg, administered 1 hr before histamine phosphate challenge with food (reference value: 115.4 +/- 126.2 /s).

Turning to `COc1ccc(NS(=O)(=O)c2ccc(NCCN3CCN([C@H](c4ccccc4)c4ccc(Cl)cc4)CC3)cc2)nn1`, the Activity in the test with Cavia porcellus [1] was -21.49%; in the test on Cavia porcellus [2] it was 279.65%. The Time in the test on Cavia porcellus [3] was 360 s.

With `Nc1ccc(S(=O)(=O)N(CCN2CCN([C@H](c3ccccc3)c3ccc(Cl)cc3)CC2)c2ccc(Cl)nn2)cc1`, the Activity with Cavia porcellus [1] was -78%; in the test with Cavia porcellus [2], 6.4%. Further, the Time in the test on Cavia porcellus [3] stood at 151.2 s.

Turning to `O=S(=O)(Nc1ncccn1)c1ccc(NCCCN2CCN([C@H](c3ccccc3)c3ccc(Cl)cc3)CC2)cc1`, the figures for the Activity with Cavia porcellus [1] and in the test on Cavia porcellus [2] were 39.93% and 576.61%, respectively. Further, the Time in the test on Cavia porcellus [3] was 229.2 s.

Turning to `Cc1cc(C)nc(NS(=O)(=O)c2ccc(NCCCN3CCN([C@H](c4ccccc4)c4ccc(Cl)cc4)CC3)cc2)n1`, the Activity in the test with Cavia porcellus [1] is -0.15%; with Cavia porcellus [2] it was 382.83%. In the test with Cavia porcellus [3], the Time was determined as 136.8 s.

As for `O=S(=O)(Nc1ccc(Cl)nn1)c1ccc(NCCN2CCN([C@H](c3ccccc3)c3ccc(Cl)cc3)CC2)cc1`, the Activity came to 103.46% with Cavia porcellus [1] and 883.81% with Cavia porcellus [2]. For the same compound, in the test with Cavia porcellus [3], the Time amounted to 255.5 s.

Regarding `Nc1ccc(S(=O)(=O)N(CCN2CCN([C@H](c3ccccc3)c3ccc(Cl)cc3)CC2)c2nccs2)cc1`, the results for the Activity with Cavia porcellus [1] and with Cavia porcellus [2] were 9.4% and 429.01%, respectively. Further, the Time in the test with Cavia porcellus [3] amounted to 184.8 s.

For `Nc1ccc(S(=O)(=O)NCCCN2CCN([C@H](c3ccccc3)c3ccc(Cl)cc3)CC2)cc1`, the figures for the Activity in the test on Cavia porcellus [1] and in the test on Cavia porcellus [2] were 107.15% and 901.67%, respectively. In addition, the Time with Cavia porcellus [3] worked out at 269.4 s.

Take `Nc1ccc(S(=O)(=O)N(CCCN2CCN([C@H](c3ccccc3)c3ccc(Cl)cc3)CC2)c2ccc(Cl)nn2)cc1`: the Activity is recorded as 10.1% in the test with Cavia porcellus [1] and 432.37% in the test on Cavia porcellus [2]. Moreover, the Time in the test with Cavia porcellus [3] came to 301.8 s.

Take `Nc1ccc(S(=O)(=O)NCCN2CCN([C@H](c3ccccc3)c3ccc(Cl)cc3)CC2)cc1`: the figures for the Activity in the test with Cavia porcellus [1] and in the test on Cavia porcellus [2] were 2.55% and 395.87%, respectively. Moreover, the Time with Cavia porcellus [3] worked out at 266.2 s.

Turning to `O=C(O)CNCCCN1CCN([C@H](c2ccccc2)c2ccc(Cl)cc2)CC1`, the Activity in the test on Cavia porcellus [1] is on record as 22.71%; in the test with Cavia porcellus [2] it was 493.36%. For the same compound, in the test with Cavia porcellus [3], the Time is recorded as 360 s.

Regarding `O=S(=O)(Nc1nccs1)c1ccc(NCCCN2CCN([C@H](c3ccccc3)c3ccc(Cl)cc3)CC2)cc1`, the Activity is -18.04% with Cavia porcellus [1] and 296.34% in the test with Cavia porcellus [2]. The Time in the test with Cavia porcellus [3] turned out to be 324.8 s.

As for `Cc1cc(C)nc(NS(=O)(=O)c2ccc(NCCN3CCN([C@H](c4ccccc4)c4ccc(Cl)cc4)CC3)cc2)n1`, the Activity with Cavia porcellus [1] was -60.28%; in the test with Cavia porcellus [2] it was 92.07%. The Time in the test on Cavia porcellus [3] is 167.4 s.

Turning to `COc1ccc(NS(=O)(=O)c2ccc(NCCCN3CCN([C@H](c4ccccc4)c4ccc(Cl)cc4)CC3)cc2)nn1`, the Activity in the test on Cavia porcellus [1] turned out to be 43.42%; with Cavia porcellus [2], 593.5%. In the test on Cavia porcellus [3], the Time was 295.6 s.

Consider `O=S(=O)(Nc1ccc(Cl)nn1)c1ccc(NCCCN2CCN([C@H](c3ccccc3)c3ccc(Cl)cc3)CC2)cc1`, for which the Activity in the test on Cavia porcellus [1] is 82.74%; in the test with Cavia porcellus [2], 783.62%. In addition, in the test with Cavia porcellus [3], the Time is 184.1 s.

Regarding `O=S(=O)(Nc1ncccn1)c1ccc(NCCN2CCN([C@H](c3ccccc3)c3ccc(Cl)cc3)CC2)cc1`, the Activity with Cavia porcellus [1] worked out at 217.8%; in the test on Cavia porcellus [2], 1436.72%. In addition, the Time with Cavia porcellus [3] was found to be 246.4 s.

`C[C@H](NCCCN1CCN([C@H](c2ccccc2)c2ccc(Cl)cc2)CC1)C(=O)O`: the Activity was 113.8% in the test on Cavia porcellus [1] and 933.8% in the test on Cavia porcellus [2]. In addition, the Time in the test on Cavia porcellus [3] worked out at 307.6 s.

Take `O=S(=O)(Nc1nccs1)c1ccc(NCCN2CCN([C@H](c3ccccc3)c3ccc(Cl)cc3)CC2)cc1`: the Activity in the test with Cavia porcellus [1] was -18.8%; in the test on Cavia porcellus [2], 292.61%. Also, the Time in the test on Cavia porcellus [3] is 360 s.

For `Nc1ccc(S(=O)(=O)N(CCCN2CCN([C@H](c3ccccc3)c3ccc(Cl)cc3)CC2)c2nccs2)cc1`, the Activity stood at 2.44% with Cavia porcellus [1] and 395.34% with Cavia porcellus [2]. Also, in the test with Cavia porcellus [3], the Time was found to be 240.3 s.

For the compound `COc1ccc(N(CCN2CCN([C@H](c3ccccc3)c3ccc(Cl)cc3)CC2)S(=O)(=O)c2ccc(N)cc2)nn1`, the Activity was 62.62% in the test on Cavia porcellus [1] and 686.34% in the test on Cavia porcellus [2]. Also, the Time in the test on Cavia porcellus [3] was 288 s.
